Tests used:
[1] = system: methicillin resistant Staphylococcus epidermidis (MRSE); experiment: standard microtiter broth serial dilution test, MRSE strains; format: cell-based; details: 10 strains of MRSE; approximately 10^5 colony forming units, 35° for 18 hours
Description: (§1) The antibacterial activity of the compounds of the invention may be readily determined using conventional test procedures. For example the antibacterial activity of the compounds of the invention was determined using a standard mictoriter broth serial dilution test. In this test the broth was incubated with approximately 10^5 colony forming units of the test organism and incubated at 35° for 18 hours in the presence of test compound.
(§2) In this list the compounds of the invention were tested using this procedure against 23 strains of MRSA and 10 strains of MRSE and the resultant minimum inhibitory concentrations (MIC90) in mg/litre determined.

[2] = system: methicillin resistant Staphylococcus aureus (MRSA); experiment: standard microtiter broth serial dilution test, MRSA strains; format: cell-based; details: 23 strains of MRSA; approximately 10^5 colony forming units, 35° for 18 hours
Description: as §1, §2

[3] = toxicity on administration to rats; format: in vivo; details: doses up to 1000 mg/kg
Excerpt: Compounds of the invention are in general non-toxic and therapeutically effective doses.

| Compound | MRSE MIC90 [1] | MRSA MIC90 [2] | untoward effects [3] |
| --- | --- | --- | --- |
| C[C@@H](O)[C@H]1C(=O)N2C(C(=O)[O-])=C3/C(=C/c4cc5cnccc5o4)CCC[C@@H]3[C@H]12.[Na+] [Example 13] | 4 mg/L | 4 mg/L |  |
| C[C@@H](O)[C@H]1C(=O)N2C(C(=O)[O-])=C3/C(=C/c4ccccc4)CCC[C@@H]3[C@H]12.[Na+] [Example 1, Sodium (8S,9R,10S,12R)-1-aza-10-(1-Hydroxyethyl)-11-oxo-4-[(E)-phenylmethylene]-tricyclo-[7,2,0,0^3.8]-undec-2-ene-2-carboxylate] | 4 mg/L | 8 mg/L |  |
| C[C@@H](O)[C@H]1C(=O)N2C(C(=O)[O-])=C3/C(=C/c4ccnc(N)c4)CCC[C@@H]3[C@H]12.[Na+] [Example 14, Sodium (8S,9R,10S,12R)-1-aza-10-(1-Hydroxyethyl)-11-oxo-4-[(E)-(2-aminopyrid-4-yl)methylene]-tricyclo-[7,2,0,0^3.8]-undec-2-ene-2-carboxylate] | 4 mg/L | 8 mg/L |  |
| Cc1cc(/C=C2\CCC[C@H]3C2=C(C(=O)[O-])N2C(=O)[C@H]([C@@H](C)O)[C@@H]32)cc(C)n1.[Na+] [Example 9, Sodium (8S,9R,10S,12R)-1-aza-10-(1-Hydroxyethyl)-11-oxo-4-[(E)-(2,6-dimethylpyridin-4-yl)methylene]-tricyclo-[7,2,0,0^3.8]-undec-2-ene-2-carboxylate] | 4 mg/L | 8 mg/L |  |
| Cc1cc(/C=C2\CCC[C@H]3C2=C(C(=O)[O-])N2C(=O)[C@H]([C@@H](C)O)[C@@H]32)ccn1.[Na+] [Example 10, Sodium (8S,9R,10S,12R)-1-aza-10-(1-Hydroxyethyl)-11-oxo-4-[(E)-(2-methylpyridin-4-yl)methylene]-tricyclo-[7,2,0,0^3.8]-undec-2-ene-2-carboxylate] | 4 mg/L | 8 mg/L |  |
| C[C@@H](O)[C@H]1C(=O)N2C(C(=O)[O-])=C3/C(=C/c4nc(-c5ccncc5)cs4)CCC[C@@H]3[C@H]12.[Na+] [Example 3, Sodium (8S,9R,10S,12R)-1-aza-10-(1-Hydroxyethyl)-11-oxo-4-[(E)-(4-(4′-pyridyl)thiazol-2-yl)methylene]-tricyclo-[7,2,0,0^3.8]-undec-2-ene-2-carboxylate] | 2 mg/L | 4 mg/L |  |
| C[C@@H](O)[C@H]1C(=O)N2C(C(=O)[O-])=C3/C(=C/c4nc(-c5ccccc5)cs4)CCC[C@@H]3[C@H]12.[Na+] [Example 7, Sodium (8S,9R,10S,12R)-1-aza-10-(1-Hydroxyethyl)-11-oxo-4-[(E)-(4-phenylthiazol-2-yl)methylene]-tricyclo-[7,2,0,0^3.8]-undec-2-ene-2-carboxylate] | 2 mg/L | 4 mg/L |  |

Now from value to compound, other results behind:

| MRSE MIC90 [1] | MRSA MIC90 [2] | Compound | untoward effects [3] |
| --- | --- | --- | --- |
| 2 mg/L | 4 mg/L | C[C@@H](O)[C@H]1C(=O)N2C(C(=O)[O-])=C3/C(=C/c4ccc(Cl)c([N+](=O)[O-])c4)CCC[C@@H]3[C@H]12.[Na+] [Example 15, Sodium (8S,9R,10S,12R)-1-aza-10-(1-Hydroxyethyl)-11-oxo-4-[(E)-(4-chloro-3-nitro-phenyl)methylene]-tricyclo-[7,2,0,0^3.8]-undec-2-ene-2-carboxylate] |  |
| 2 mg/L | 2 mg/L | C[C@@H](O)[C@H]1C(=O)N2C(C(=O)[O-])=C3/C(=C/c4cccc(-c5ccncc5)c4)CCC[C@@H]3[C@H]12.[Na+] [Example 8, Sodium (8S,9R,10S,12R)-1-aza-10-(1-Hydroxyethyl)-11-oxo-4-[(E)-(3-(4′-pyridyl)phenyl)methylene]-tricyclo-[7,2,0,0^3.8]-undec-2-ene-2-carboxylate] |  |
| 2 mg/L | 4 mg/L | C[C@@H](O)[C@H]1C(=O)N2C(C(=O)[O-])=C3/C(=C/c4cc5ccccc5o4)CCC[C@@H]3[C@H]12.[Na+] [Example 11] |  |
| 2 mg/L | 4 mg/L | C[C@@H](O)[C@H]1C(=O)N2C(C(=O)[O-])=C3/C(=C/c4csc5ccccc45)CCC[C@@H]3[C@H]12.[Na+] [Example 17, Sodium (8S,9R,10S,12R)-1-aza-10-(1-Hydroxyethyl)-11-oxo-4-[(E-)(benzothiophen-3-yl)methylene]-tricyclo-[7,2,0,0^3.8]-undec-2-ene-2-carboxylate] |  |
| 2 mg/L | 4 mg/L | C[C@@H](O)[C@H]1C(=O)N2C(C(=O)[O-])=C3/C(=C/c4cc(-c5cc[n+](CC(N)=O)cc5)cs4)CCC[C@@H]3[C@H]12 [Example 18, (8S,9R,10S,12R)-1-aza-10-(1-Hydroxyethyl)-11-oxo-4-[(E)-(4-(1′-(carbamoylmethyl)pyridinium-4-′-yl)thiophen-2-yl)methylene]-tricyclo-[7,2,0,0^3.8]-undec-2-ene-2-carboxylate] |  |
| 2 mg/L | 2 mg/L | C[C@@H](O)[C@H]1C(=O)N2C(C(=O)[O-])=C3/C(=C/c4ccc([N+](=O)[O-])cc4)CCC[C@@H]3[C@H]12.[Na+] [Example 6, Sodium (8S,9R,10S,12R)-1-aza-10-(1-Hydroxyethyl)-11-oxo-4-[(E)-(4-nitrophenyl)methylene]-tricyclo-[7,2,0,0^3.8]-undec-2-ene-2-carboxylate] |  |
| 1 mg/L | 2 mg/L | C[C@@H](O)[C@H]1C(=O)N2C(C(=O)[O-])=C3/C(=C/c4cc5ccccc5s4)CCC[C@@H]3[C@H]12.[Na+] [Example 16, Sodium (8S,9R,10S,12R)-1-aza-10-(1-Hydroxyethyl)-11-oxo-4-[(E)-(benzothiophen-2-yl)methylene]-tricyclo-[7,2,0,0^3.8]-undec-2-ene-2-carboxylate] |  |
| 2 mg/L | 4 mg/L | C[C@@H](O)[C@H]1C(=O)N2C(C(=O)[O-])=C3/C(=C/c4ccnc(Cl)c4)CCC[C@@H]3[C@H]12.[Na+] [Example 12] |  |
| 2 mg/L | 4 mg/L | C[C@@H](O)[C@H]1C(=O)N2C(C(=O)[O-])=C3/C(=C/c4ccncc4)CCC[C@@H]3[C@H]12.[Na+] [Example 5, Sodium (8S,9R,10S,12R)-1-aza-10-(1-Hydroxyethyl)-11-oxo-4-[(E)-(pyrid-4-yl)methylene]-tricyclo-[7,2,0,0^3.8]-undec-2-ene-2-carboxylate] | no untoward effects |

From patent US6531466B2, “Tricyclic carbapenem compounds” (GlaxoSmithKline SpA, priority 1996, dated 2003)
